Assay results from PubChem BioAssay AID330 (DTP/NCI, 2004).
Values joined by “and” are separate entries in the source; they are usually repeats but may differ in a detail not shown here. Equal entries are not always repeated. Inconclusive results and toxic doses are left out.

Tested on: P388 leukemia ip, CD2F1 mice, survival T/C
Experiment: NCI In Vivo Anticancer Drug Screen. Data for tumor model P388 Leukemia (intraperitoneal) in CD2F1 (CDF1) mice
Conditions: endpoint: median survival time, higher = longer survival
Summary of the method: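 Mice carrying the transplanted tumor received test compound or vehicle. Survival was recorded in each group, and the value is the treated-group measurement divided by that of the vehicle-treated control group.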

[1] = dose: 100.0 mg/kg/injection, schedule: Q01DX009 (ip), vehicle: saline with Tween-80
[2] = dose: 50.0 mg/kg/injection, schedule: Q01DX005 (ip), vehicle: Klucel (hydroxypropylcellulose) (HPC)
[3] = dose: 100.0 mg/kg/injection, schedule: Q01DX005 (ip), vehicle: Klucel (hydroxypropylcellulose) (HPC)
[4] = dose: 200.0 mg/kg/injection, schedule: Q01DX005 (ip), vehicle: Klucel (hydroxypropylcellulose) (HPC)

## CCOC(=O)C(Cc1ccc(O)cc1)NCc1ccc(N(CCCl)CCCl)cc1 (stereo unspecified)
dose: 12.5 mg/kg/injection, schedule: Q01DX009 (ip), vehicle: saline with Tween-80
  T/C: 109 % of control
dose: 25.0 mg/kg/injection, schedule: Q01DX009 (ip), vehicle: saline with Tween-80
  T/C: 113 % of control
[1]
  T/C: 160 % of control

## CCCCCCCC(=O)NC1CC(O[C@H]2C[C@](O)(C(C)=O)Cc3c(O)c4c(c(O)c32)C(=O)c2c(OC)cccc2C4=O)OC(C)C1O (stereo partly specified)
dose: 0.75 mg/kg/injection, schedule: Q01DX009 (ip), vehicle: other
  T/C: 113 % of control
dose: 2.0 mg/kg/injection, schedule: Q04DX003 (ip), vehicle: other
  T/C: 107 % of control
dose: 4.0 mg/kg/injection, schedule: Q04DX003 (ip), vehicle: other
  T/C: 98 % of control
dose: 8.0 mg/kg/injection, schedule: Q04DX003 (ip), vehicle: other
  T/C: 102 % of control
dose: 16.0 mg/kg/injection, schedule: Q04DX003 (ip), vehicle: other
  T/C: 105 % of control
dose: 32.0 mg/kg/injection, schedule: Q04DX003 (ip), vehicle: other
  T/C: 116 % of control and 96 % of control
dose: 50.0 mg/kg/injection, schedule: Q04DX003 (ip), vehicle: other
  T/C: 118 % of control
dose: 64.0 mg/kg/injection, schedule: Q04DX003 (ip), vehicle: other
  T/C: 114 % of control
dose: 100.0 mg/kg/injection, schedule: Q04DX003 (ip), vehicle: other
  T/C: 105 % of control
dose: 128.0 mg/kg/injection, schedule: Q04DX003 (ip), vehicle: other
  T/C: 123 % of control
dose: 256.0 mg/kg/injection, schedule: Q04DX003 (ip), vehicle: other
  T/C: 123 % of control
dose: 400.0 mg/kg/injection, schedule: Q04DX003 (ip), vehicle: other
  T/C: 115 % of control

## CC1(C)N=C(N)N=C(N)N1c1cccc(OCCCOc2ccccc2)c1
dose: 12.5 mg/kg/injection, schedule: Q01DX001 (ip), vehicle: Klucel (hydroxypropylcellulose) (HPC)
  T/C: 101 % of control
dose: 25.0 mg/kg/injection, schedule: Q01DX001 (ip), vehicle: Klucel (hydroxypropylcellulose) (HPC)
  T/C: 100 % of control
dose: 50.0 mg/kg/injection, schedule: Q01DX001 (ip), vehicle: Klucel (hydroxypropylcellulose) (HPC)
  T/C: 102 % of control

## NC1=NN(S(=O)(=O)c2ccc(Cl)cc2)CC1
[2]
  T/C: 96 % of control
[3]
  T/C: 88 % of control
[4]
  T/C: 90 % of control

## S=P1(Oc2ccccc2)Nc2cccc3cccc(c23)N1
dose: 25.0 mg/kg/injection, schedule: Q01DX005 (ip), vehicle: Klucel (hydroxypropylcellulose) (HPC)
  T/C: 98 % of control
[2]
  T/C: 106 % of control
[3]
  T/C: 102 % of control
[4]
  T/C: 103 % of control

## COc1ccc(C2OC(=N)C(=S)N2C)cc1O (stereo unspecified)
dose: 60.0 mg/kg/injection, schedule: Q01DX005 (ip), vehicle: Klucel (hydroxypropylcellulose) (HPC)
  T/C: 112 % of control
dose: 120.0 mg/kg/injection, schedule: Q01DX005 (ip), vehicle: Klucel (hydroxypropylcellulose) (HPC)
  T/C: 109 % of control
dose: 240.0 mg/kg/injection, schedule: Q01DX005 (ip), vehicle: Klucel (hydroxypropylcellulose) (HPC)
  T/C: 112 % of control

## Cc1cnc(C)n2cnnc12
dose: 100.0 mg/kg/injection, schedule: Q04DX003 (ip), vehicle: saline
  T/C: 93 % of control
dose: 200.0 mg/kg/injection, schedule: Q04DX003 (ip), vehicle: saline
  T/C: 95 % of control
dose: 400.0 mg/kg/injection, schedule: Q04DX003 (ip), vehicle: saline
  T/C: 98 % of control

## Clc1ccc(C(Cn2ccnc2)OCc2c(Cl)cccc2Cl)cc1 (stereo unspecified)
dose: 50.0 mg/kg/injection, schedule: Q01DX009 (ip), vehicle: saline with Tween-80
  T/C: 102 % of control
[1]
  T/C: 97 % of control

## CCOC(=O)C(C)Oc1ccc(Cl)cc1 (stereo unspecified)
dose: 25.0 mg/kg/injection, schedule: Q01DX009 (ip), vehicle: water
  T/C: 99 % of control
dose: 50.0 mg/kg/injection, schedule: Q01DX009 (ip), vehicle: water
  T/C: 102 % of control
dose: 100.0 mg/kg/injection, schedule: Q01DX009 (ip), vehicle: water
  T/C: 102 % of control
dose: 200.0 mg/kg/injection, schedule: Q01DX009 (ip), vehicle: water
  T/C: 98 % of control
dose: 400.0 mg/kg/injection, schedule: Q01DX009 (ip), vehicle: water
  T/C: 107 % of control

## Cc1[nH]nc2c(Cc3ccco3)n[nH]c(=O)c12
dose: 50.0 mg/kg/injection, schedule: Q01DX009 (ip), vehicle: Klucel (hydroxypropylcellulose) (HPC)
  T/C: 101 % of control
dose: 100.0 mg/kg/injection, schedule: Q01DX009 (ip), vehicle: Klucel (hydroxypropylcellulose) (HPC)
  T/C: 100 % of control
dose: 200.0 mg/kg/injection, schedule: Q01DX009 (ip), vehicle: Klucel (hydroxypropylcellulose) (HPC)
  T/C: 100 % of control
